# Measured values as given in patent publication US20240132484A1, “BROAD SPECTRUM ANTIVIRAL COMPOUNDS TARGETING THE SKI COMPLEX” (priority 2020, published 2024).
# Where “and” joins values, the source holds several entries; their conditions need not be identical. Equal values may be shown once. Entries after “also recorded” stand apart in the source; their conditions may differ. Read-outs that look alike come from different tables or passages of the source.
# Key:
# cells (nuclei count) = conditions: for Relative cell count to DMSO controls, Average 1 μM / Relative cell count to DMSO controls, Average 5 μM / Relative cell count to DMSO controls, Average 10 μM / Relative cell count to DMSO controls, Average 25 μM / Relative cell count to DMSO controls, Average 50 μM: toxicity data, 100=DMSO control; for Toxicity Data, Average, Mean percentage relative to DMSO control: Average of Exp 1 (SMW491) and Exp 2 (SMW492); for Toxicity Data, Percentage Relative to Appropriate DMSO Control: single well; for Relative cell count to DMSO controls, Average (for correlation analysis): average value over the 5 tested concentrations (1 to 50 uM)
# SARS2 = format: cell-based, SARS-CoV-2; conditions: for Infection Data, Average, Mean percentage infection relative to DMSO control: Average of Exp 1 (SMW491) and Exp 2 (SMW492); for Infection Data, Percentage Infection Relative to Appropriate DMSO Control: single well, avg background subtraction; for Percentage Inhibition Average 1 μM / Screening data (Relative infection to DMSO controls) Average 1 μM: SARS2, 1 μM; for Screening data (Relative infection to DMSO controls) Average 1 μM / Screening data (Relative infection to DMSO controls) Average 5 μM / Screening data (Relative infection to DMSO controls) Average 10 μM / Screening data (Relative infection to DMSO controls) Average 25 μM / Screening data (Relative infection to DMSO controls) Average 50 μM / Average (relative infection to DMSO over the 5 tested concentrations): 100=DMSO control; for Percentage Inhibition Average 5 μM / Screening data (Relative infection to DMSO controls) Average 5 μM: SARS2, 5 μM; for Percentage Inhibition Average 10 μM / Screening data (Relative infection to DMSO controls) Average 10 μM: SARS2, 10 μM; for Percentage Inhibition Average 25 μM / Screening data (Relative infection to DMSO controls) Average 25 μM: SARS2, 25 μM; for Percentage Inhibition Average 50 μM / Screening data (Relative infection to DMSO controls) Average 50 μM: SARS2, 50 μM; for Average (relative infection to DMSO over the 5 tested concentrations): SARS2, average over 1 to 50 uM
smiles,measurement,setting,value
COc1ccc(CNCCc2ccccc2F)c(OCC(O)CN2CCN(C)CC2)c1 (stereo not shown) [SILCS45],"Relative cell count to DMSO controls, Average 1 μM",cells (nuclei count),116.96
same,"Relative cell count to DMSO controls, Average 5 μM",cells (nuclei count),123.47
same,"Relative cell count to DMSO controls, Average 10 μM",cells (nuclei count),131.34
same,"Relative cell count to DMSO controls, Average 25 μM",cells (nuclei count),119.79
same,"Relative cell count to DMSO controls, Average 50 μM",cells (nuclei count),125.46
same,"Toxicity Data, Average, Mean percentage relative to DMSO control","cells (nuclei count); n=4, 1 uM",116.96%
same,"Toxicity Data, Average, Mean percentage relative to DMSO control","cells (nuclei count); n=4, 5 uM",123.47%
same,"Toxicity Data, Average, Mean percentage relative to DMSO control","cells (nuclei count); n=4, 10 uM",131.34%
same,"Toxicity Data, Average, Mean percentage relative to DMSO control","cells (nuclei count); n=4, 25 uM",119.79%
same,"Toxicity Data, Average, Mean percentage relative to DMSO control","cells (nuclei count); n=4, 50 uM",125.46%
same,"Toxicity Data, Percentage Relative to Appropriate DMSO Control","cells (nuclei count); Exp 1 (SMW491), 1 uM",94% and 101%
same,"Toxicity Data, Percentage Relative to Appropriate DMSO Control","cells (nuclei count); Exp 1 (SMW491), 5 uM",121% and 114%
same,"Toxicity Data, Percentage Relative to Appropriate DMSO Control","cells (nuclei count); Exp 1 (SMW491), 10 uM",111% and 127%
same,"Toxicity Data, Percentage Relative to Appropriate DMSO Control","cells (nuclei count); Exp 1 (SMW491), 25 uM",95% and 123%
same,"Toxicity Data, Percentage Relative to Appropriate DMSO Control","cells (nuclei count); Exp 1 (SMW491), 50 uM",129% and 121%
same,"Toxicity Data, Percentage Relative to Appropriate DMSO Control","cells (nuclei count); Exp 2 (SMW492), 1 uM",139% and 133%
same,"Toxicity Data, Percentage Relative to Appropriate DMSO Control","cells (nuclei count); Exp 2 (SMW492), 5 uM",133% and 126%
same,"Toxicity Data, Percentage Relative to Appropriate DMSO Control","cells (nuclei count); Exp 2 (SMW492), 10 uM",137% and 151%
same,"Toxicity Data, Percentage Relative to Appropriate DMSO Control","cells (nuclei count); Exp 2 (SMW492), 25 uM",135% and 127%
same,"Toxicity Data, Percentage Relative to Appropriate DMSO Control","cells (nuclei count); Exp 2 (SMW492), 50 uM",126%
same,"Relative cell count to DMSO controls, Average (for correlation analysis)",cells (nuclei count),123.40
same,SARS2 antiviral activity,SARS2,improved activity over SILCS41; also recorded: improved properties over SILCS46
same,"Infection Data, Average, Mean percentage infection relative to DMSO control","SARS2; n=4, 1 uM",54.68%
same,"Infection Data, Average, Mean percentage infection relative to DMSO control","SARS2; n=4, 5 uM",−1.00%
same,"Infection Data, Average, Mean percentage infection relative to DMSO control","SARS2; n=4, 10 uM",3.88%
same,"Infection Data, Average, Mean percentage infection relative to DMSO control","SARS2; n=4, 25 uM",−1.28%
same,"Infection Data, Average, Mean percentage infection relative to DMSO control","SARS2; n=4, 50 uM",3.57%
same,"Infection Data, Percentage Infection Relative to Appropriate DMSO Control","SARS2; Exp 1 (SMW491), 1 uM",102.92% and 112.49%
same,"Infection Data, Percentage Infection Relative to Appropriate DMSO Control","SARS2; Exp 1 (SMW491), 5 uM",−1.31% and −0.48%
same,"Infection Data, Percentage Infection Relative to Appropriate DMSO Control","SARS2; Exp 1 (SMW491), 10 uM",0.12% and −3.09%
same,"Infection Data, Percentage Infection Relative to Appropriate DMSO Control","SARS2; Exp 1 (SMW491), 25 uM",−0.41% and −2.68%
same,"Infection Data, Percentage Infection Relative to Appropriate DMSO Control","SARS2; Exp 1 (SMW491), 50 uM",1.17% and −2.53%
same,"Infection Data, Percentage Infection Relative to Appropriate DMSO Control","SARS2; Exp 2 (SMW492), 1 uM",3.72% and −0.43%
same,"Infection Data, Percentage Infection Relative to Appropriate DMSO Control","SARS2; Exp 2 (SMW492), 5 uM",−2.43% and 0.22%
same,"Infection Data, Percentage Infection Relative to Appropriate DMSO Control","SARS2; Exp 2 (SMW492), 10 uM",7.69% and 10.80%
same,"Infection Data, Percentage Infection Relative to Appropriate DMSO Control","SARS2; Exp 2 (SMW492), 25 uM",0.00% and −2.03%
same,"Infection Data, Percentage Infection Relative to Appropriate DMSO Control","SARS2; Exp 2 (SMW492), 50 uM",7.94% and 7.68%
same,Percentage Inhibition Average 1 μM,SARS2,45.32%
same,Screening data (Relative infection to DMSO controls) Average 1 μM,SARS2,54.68
same,Percentage Inhibition Average 5 μM,SARS2,101.00%
same,Screening data (Relative infection to DMSO controls) Average 5 μM,SARS2,−1.00
same,Percentage Inhibition Average 10 μM,SARS2,96.12%
same,Screening data (Relative infection to DMSO controls) Average 10 μM,SARS2,3.88
same,Percentage Inhibition Average 25 μM,SARS2,101.28%
same,Screening data (Relative infection to DMSO controls) Average 25 μM,SARS2,−1.28
same,Percentage Inhibition Average 50 μM,SARS2,96.43%
same,Screening data (Relative infection to DMSO controls) Average 50 μM,SARS2,3.57
same,Average (relative infection to DMSO over the 5 tested concentrations),SARS2,11.97
same,SARS2 antiviral activity,SARS2; listed as D45,more potent than D46
COc1ccc(CNCCc2ccccc2F)c(OCC(O)CN2CCN(C)CC2)c1 (stereo not shown) [SILCS46],"Relative cell count to DMSO controls, Average 1 μM",cells (nuclei count),103.33
same,"Relative cell count to DMSO controls, Average 5 μM",cells (nuclei count),131.17
same,"Relative cell count to DMSO controls, Average 10 μM",cells (nuclei count),126.44
same,"Relative cell count to DMSO controls, Average 25 μM",cells (nuclei count),117.77
same,"Relative cell count to DMSO controls, Average 50 μM",cells (nuclei count),107.72
same,"Toxicity Data, Average, Mean percentage relative to DMSO control","cells (nuclei count); n=4, 1 uM",103.33%
same,"Toxicity Data, Average, Mean percentage relative to DMSO control","cells (nuclei count); n=4, 5 uM",131.17%
same,"Toxicity Data, Average, Mean percentage relative to DMSO control","cells (nuclei count); n=4, 10 uM",126.44%
same,"Toxicity Data, Average, Mean percentage relative to DMSO control","cells (nuclei count); n=4, 25 uM",117.77%
same,"Toxicity Data, Average, Mean percentage relative to DMSO control","cells (nuclei count); n=4, 50 uM",107.72%
same,"Toxicity Data, Percentage Relative to Appropriate DMSO Control","cells (nuclei count); Exp 1 (SMW491), 1 uM",87% and 86%
same,"Toxicity Data, Percentage Relative to Appropriate DMSO Control","cells (nuclei count); Exp 1 (SMW491), 5 uM",124% and 137%
same,"Toxicity Data, Percentage Relative to Appropriate DMSO Control","cells (nuclei count); Exp 1 (SMW491), 10 uM",126% and 116%
same,"Toxicity Data, Percentage Relative to Appropriate DMSO Control","cells (nuclei count); Exp 1 (SMW491), 25 uM",118% and 101%
same,"Toxicity Data, Percentage Relative to Appropriate DMSO Control","cells (nuclei count); Exp 1 (SMW491), 50 uM",84% and 108%
same,"Toxicity Data, Percentage Relative to Appropriate DMSO Control","cells (nuclei count); Exp 2 (SMW492), 1 uM",100% and 140%
same,"Toxicity Data, Percentage Relative to Appropriate DMSO Control","cells (nuclei count); Exp 2 (SMW492), 5 uM",120% and 143%
same,"Toxicity Data, Percentage Relative to Appropriate DMSO Control","cells (nuclei count); Exp 2 (SMW492), 10 uM",134% and 130%
same,"Toxicity Data, Percentage Relative to Appropriate DMSO Control","cells (nuclei count); Exp 2 (SMW492), 25 uM",117% and 135%
same,"Toxicity Data, Percentage Relative to Appropriate DMSO Control","cells (nuclei count); Exp 2 (SMW492), 50 uM",118% and 121%
same,"Relative cell count to DMSO controls, Average (for correlation analysis)",cells (nuclei count),117.29
same,SARS2 antiviral activity,SARS2,lower activity
same,"Infection Data, Average, Mean percentage infection relative to DMSO control","SARS2; n=4, 1 uM",72.12%
same,"Infection Data, Average, Mean percentage infection relative to DMSO control","SARS2; n=4, 5 uM",0.77%
same,"Infection Data, Average, Mean percentage infection relative to DMSO control","SARS2; n=4, 10 uM",21.64%
same,"Infection Data, Average, Mean percentage infection relative to DMSO control","SARS2; n=4, 25 uM",0.03%
same,"Infection Data, Average, Mean percentage infection relative to DMSO control","SARS2; n=4, 50 uM",0.84%
same,"Infection Data, Percentage Infection Relative to Appropriate DMSO Control","SARS2; Exp 1 (SMW491), 1 uM",73.61% and 132.86%
same,"Infection Data, Percentage Infection Relative to Appropriate DMSO Control","SARS2; Exp 1 (SMW491), 5 uM",−0.70% and 0.86%
same,"Infection Data, Percentage Infection Relative to Appropriate DMSO Control","SARS2; Exp 1 (SMW491), 10 uM",−2.65% and −0.77%
same,"Infection Data, Percentage Infection Relative to Appropriate DMSO Control","SARS2; Exp 1 (SMW491), 25 uM",−3.35% and 0.11%
same,"Infection Data, Percentage Infection Relative to Appropriate DMSO Control","SARS2; Exp 1 (SMW491), 50 uM",2.55% and −4.15%
same,"Infection Data, Percentage Infection Relative to Appropriate DMSO Control","SARS2; Exp 2 (SMW492), 1 uM",49.01% and 32.97%
same,"Infection Data, Percentage Infection Relative to Appropriate DMSO Control","SARS2; Exp 2 (SMW492), 5 uM",0.99% and 1.92%
same,"Infection Data, Percentage Infection Relative to Appropriate DMSO Control","SARS2; Exp 2 (SMW492), 10 uM",47.59% and 42.39%
same,"Infection Data, Percentage Infection Relative to Appropriate DMSO Control","SARS2; Exp 2 (SMW492), 25 uM",0.98% and 2.39%
same,"Infection Data, Percentage Infection Relative to Appropriate DMSO Control","SARS2; Exp 2 (SMW492), 50 uM",3.90% and 1.08%
same,Percentage Inhibition Average 1 μM,SARS2,27.88%
same,Screening data (Relative infection to DMSO controls) Average 1 μM,SARS2,72.12
same,Percentage Inhibition Average 5 μM,SARS2,99.23%
same,Screening data (Relative infection to DMSO controls) Average 5 μM,SARS2,0.77
same,Percentage Inhibition Average 10 μM,SARS2,78.36%
same,Screening data (Relative infection to DMSO controls) Average 10 μM,SARS2,21.64
same,Percentage Inhibition Average 25 μM,SARS2,99.97%
same,Screening data (Relative infection to DMSO controls) Average 25 μM,SARS2,0.03
same,Percentage Inhibition Average 50 μM,SARS2,99.16%
same,Screening data (Relative infection to DMSO controls) Average 50 μM,SARS2,0.84
same,Average (relative infection to DMSO over the 5 tested concentrations),SARS2,19.08
